In data set [1] the test system is MV4-11. Nature of the data set: Antiproliferative activity against human MV4-11 cells assessed as inhibition of cell growth incubated for 120 hrs by celltiter glo luminescence analysis. It is filed as functional, cell-based. To be noted: MV4-11, 120 h. Background: In ATP-based viability assays light output follows the ATP content of the culture.
The test system of data set [2] is MV4-11. Nature of the data set: Potency index, ratio of Y08207 IC50 to test compound IC50 for antiproliferative activity against human MV4-11 cells assessed as inhibition of cell growth incubated for 120 hrs by celltiter glo luminescence analysis. It is filed as functional.
The next data set addresses CREB-binding protein (Homo sapiens, UniProt Q92793). As to the kind of experiment: Inhibition of C-terminal biotinylated tetra-acetylated histone peptide H4 binding to His6-fused human CBP bromodomain (R1081 to G1197 residues) incubated for 1 hrs by HTRF assay. Background: Time-resolved FRET reads energy transfer from a long-lived donor to a nearby acceptor.
In data set [3] the target is Histone acetyltransferase p300 (Homo sapiens, UniProt Q09472). Nature of the data set: Inhibition of C-terminal biotinylated tetra-acetylated histone peptide H4 binding to His6-fused human p300 bromodomain (A1040 to G1161 residues) incubated for 1 hrs by HTRF assay.
The subject of the next data set is KG-1. Nature of the data set: Antiproliferative activity against human KG-1 cells assessed as inhibition of cell growth incubated for 72 hrs by celltiter glo luminescence analysis. It is filed as functional, cell-based. Particulars: KG-1, 72 h.
The nature of data set [4]: Cytotoxicity against human HL7702 cells assessed as inhibition of cell growth incubated for 72 hrs by celltiter glo luminescence analysis. It is filed as toxicity, cell-based. To be noted: HL7702 (L02) cells.
Another data set has as its target Protein cereblon (Homo sapiens, UniProt Q96SW2). Nature of the data set: Inhibition of biotinylated thalidomide binding to CRBN (40 to 442 residues) (unknown origin) incubated for 1 hrs by HTRF assay.
Data set [5] is described as follows: Antiproliferative activity against human MOLM16 cells assessed as inhibition of cell growth incubated for 72 hrs by celltiter glo luminescence analysis. It is filed as functional, cell-based, MOLM-16. Particulars: MOLM16, 72 h.
The target of data set [6] is T1, Protein cereblon/CREB-binding protein (Homo sapiens) (UniProt Q92793+Q96SW2). Nature of the data set: PROTAC activity at CRBN/CBP in human MOLM16 cells assessed as induction of CBP degradation at 1000 nM incubated for 24 hrs by Western blot analysis relative to control. It is filed as cell-based. (A western blot detects proteins with antibodies after separation by electrophoresis.)

The target in data set [7] is T2, Protein cereblon/Histone acetyltransferase p300 (Homo sapiens) (UniProt Q09472+Q96SW2). As to the kind of experiment: PROTAC activity at CRBN/p300 in human MOLM16 cells assessed as induction of p300 degradation at 1000 nM incubated for 24 hrs by Western blot analysis relative to control. It is filed as cell-based.
For data set [8], the target named is T2, Protein cereblon/Histone acetyltransferase p300 (Homo sapiens). As to the kind of experiment: PROTAC activity at CRBN/p300 in human MOLM16 cells assessed as induction of p300 degradation incubated for 24 hrs by Western blot analysis. It is filed as cell-based. To be noted: dose 0-1000 nM.
Data set [9] deals with T1, Protein cereblon/CREB-binding protein (Homo sapiens). As to the kind of experiment: PROTAC activity at CRBN/CBP in human MOLM16 cells assessed as induction of CBP degradation incubated for 24 hrs by Western blot analysis. It counts as cell-based. To be noted: dose 0-1000 nM.

Experimental findings from ChEMBL document CHEMBL5512685, “Discovery of a Promising CBP/p300 Degrader XYD129 for the Treatment of Acute Myeloid Leukemia” (J Med Chem, 2024) are described below.

As a reminder, the IC50 is the concentration that inhibits the measured activity by half.

Consider `CC(=O)c1cc(C(=O)Nc2cc(CO)cc(-c3cnn(C)c3)c2F)c2cc(OC3CCN(C(=O)CCOCCOCCNc4cccc5c4C(=O)N(C4CCC(=O)NC4=O)C5=O)CC3)ccn12` (stereo not drawn), for which the IC50 in the data set with MV4-11 [1] came to 11.1 µM.
Consider `CC(=O)c1cc(C(=O)Nc2cc(CO)cc(-c3cnn(C)c3)c2F)c2cc(OCCCCCC(=O)NCCCc3cccc4c3C(=O)N(C3CCC(=O)NC3=O)C4=O)ccn12` (stereo not drawn), for which the “Ratio IC50” value in the data set on MV4-11 [2] is on record as roughly 8. The IC50 worked out at 68 nM at CREB-binding protein; 0.46 µM in the data set on MV4-11 [1]; 46 nM in [3]; 4.77 µM in the data set on KG-1; 790 nM on Protein cereblon; 54 nM in data set [5]. Besides, in data set [4], the 50% inhibitory concentration (IC50) at 72 h was greater than 100 µM.
As for `CC(=O)c1cc(C(=O)Nc2cc(CO)cc(-c3cnn(C)c3)c2F)c2cc(OCC(=O)NCCCCNc3ccc4c(c3)C(=O)N(C3CCC(=O)NC3=O)C4=O)ccn12` (stereo not drawn), in the data set with MV4-11 [1], the IC50 was greater than 20 µM.
As to `CC(=O)c1cc(C(=O)Nc2cc(CO)cc(-c3cnn(C)c3)c2F)c2cc(OCC(=O)NCCNc3cccc4c3C(=O)N(C3CCC(=O)NC3=O)C4=O)ccn12` (stereo not drawn), the IC50 in the data set with MV4-11 [1] was greater than 20 µM.
In the case of `CC(=O)c1cc(C(=O)Nc2cc(CO)cc(-c3cnn(C)c3)c2F)c2cc(OCCCC(=O)NCCCc3cccc4c3C(=O)N(C3CCC(=O)NC3=O)C4=O)ccn12` (stereo not drawn), the half-maximal inhibitory concentration (IC50) with MV4-11 [1] was found to be 1.48 µM.
Turning to `CC(=O)c1cc(C(=O)Nc2cc(CO)cc(-c3cnn(C)c3)c2F)c2cc(OCCCC(=O)NCCNc3cccc4c3C(=O)N(C3CCC(=O)NC3=O)C4=O)ccn12` (stereo not drawn), the IC50 on CREB-binding protein stood at 73 nM; in the data set with MV4-11 [1], 0.42 µM; in data set [3], 77 nM; in the data set with KG-1, 3.95 µM; on Protein cereblon, 1100 nM; in data set [5], 21 nM. The Activity in [6] was 100%; in [7], 100%; in data set [8] it was “Dose-Dependent Effect”; in data set [9] it was “Dose-Dependent Effect”. The IC50 at 72 h in [4] was greater than 100 µM.
For the compound `CC(=O)c1cc(C(=O)Nc2cc(CO)cc(-c3cnn(C)c3)c2F)c2cc(OCC(=O)NCCCc3cccc4c3C(=O)N(C3CCC(=O)NC3=O)C4=O)ccn12` (stereo not drawn), the IC50 in the data set on MV4-11 [1] worked out at 7.51 µM.
Take `CC(=O)c1cc(C(=O)Nc2cc(CO)cc(-c3cnn(C)c3)c2F)c2cc(OCC(=O)NCC#Cc3cccc4c3C(=O)N(C3CCC(=O)NC3=O)C4=O)ccn12` (stereo not drawn): the IC50 in the data set on MV4-11 [1] was found to be 23 µM.
Consider `CC(=O)c1cc(C(=O)Nc2cc(CO)cc(-c3cnn(C)c3)c2F)c2cc(OCCCCCCC(=O)NCCCc3cccc4c3C(=O)N(C3CCC(=O)NC3=O)C4=O)ccn12` (stereo not drawn), for which the IC50 is 36 nM at CREB-binding protein, 1.03 µM in the data set on MV4-11 [1], 51 nM in [3] and 7000 nM on Protein cereblon.
With `CC(=O)c1cc(C(=O)Nc2cc(CO)cc(-c3cnn(C)c3)c2F)c2cc(OCCCCCC(=O)NCC#Cc3cccc4c3C(=O)N(C3CCC(=O)NC3=O)C4=O)ccn12` (stereo not drawn), the IC50 in the data set on MV4-11 [1] is 13 µM.
With `CC(=O)c1cc(C(=O)Nc2cc(CO)cc(-c3cnn(C)c3)c2F)c2cc(OC3CCN(C(=O)CCOCCOCCOCCNc4cccc5c4C(=O)N(C4CCC(=O)NC4=O)C5=O)CC3)ccn12` (stereo not drawn), the half-inhibitory concentration (IC50) in the data set on MV4-11 [1] was determined as 5.39 µM.
For `CC(=O)c1cc(C(=O)Nc2cc(CO)cc(-c3cnn(C)c3)c2F)c2cc(OC3CCN(C(=O)CCOCCNc4cccc5c4C(=O)N(C4CCC(=O)NC4=O)C5=O)CC3)ccn12` (stereo not drawn), the half-inhibitory concentration (IC50) in the data set on MV4-11 [1] is 8.03 µM.
Regarding `CC(=O)c1cc(C(=O)Nc2cc(CO)cc(-c3cnn(C)c3)c2F)c2cc(OCCCCCCCC(=O)NCCCc3cccc4c3C(=O)N(C3CCC(=O)NC3=O)C4=O)ccn12` (stereo not drawn), in the data set on MV4-11 [1], the IC50 was 1.25 µM.
Regarding `CC(=O)c1cc(C(=O)Nc2cc(CO)cc(-c3cnn(C)c3)c2F)c2cc(OCCCC(=O)NCCCCCCCCNc3cccc4c3C(=O)N(C3CCC(=O)NC3=O)C4=O)ccn12` (stereo not drawn), the IC50 with MV4-11 [1] was greater than 20 µM.
Turning to `CC(=O)c1cc(C(=O)Nc2cc(CO)cc(-c3cnn(C)c3)c2F)c2cc(OCCCC(=O)NCCNc3ccc4c(c3)C(=O)N(C3CCC(=O)NC3=O)C4=O)ccn12` (stereo not drawn), the half-maximal inhibitory concentration (IC50) with MV4-11 [1] came to 17.8 µM.
As for `CC(=O)c1cc(C(=O)Nc2cc(CO)cc(-c3cnn(C)c3)c2F)c2cc(OCCCCC(=O)NCCCc3cccc4c3C(=O)N(C3CCC(=O)NC3=O)C4=O)ccn12` (stereo not drawn), in the data set with MV4-11 [2], the “Ratio IC50” value is recorded as roughly 8. Further, the IC50 at CREB-binding protein was 20 nM; in the data set with MV4-11 [1], 0.75 µM; in data set [3], 22 nM; on Protein cereblon, 470 nM.
Take `CC(=O)c1cc(C(=O)Nc2cc(CO)cc(-c3cnn(C)c3)c2F)c2cc(OCCCCCCC(=O)NCC#Cc3cccc4c3C(=O)N(C3CCC(=O)NC3=O)C4=O)ccn12` (stereo not drawn): in the data set with MV4-11 [2], the “Ratio IC50” value is recorded as roughly 2. The IC50 in the data set on MV4-11 [1] was 3.93 µM.
As to `CC(=O)c1cc(C(=O)Nc2cc(CO)cc(-c3cnn(C)c3)c2F)c2cc(OCC(=O)NCCCNc3cccc4c3C(=O)N(C3CCC(=O)NC3=O)C4=O)ccn12` (stereo not drawn), the “Ratio IC50” value in the data set with MV4-11 [2] stood at 6. In addition, in the data set with MV4-11 [1], the half-inhibitory concentration (IC50) was found to be 1.06 µM.
Take `CC(=O)c1cc(C(=O)Nc2cc(CO)cc(-c3cnn(C)c3)c2F)c2cc(OCCCC(=O)NCCCCNc3cccc4c3C(=O)N(C3CCC(=O)NC3=O)C4=O)ccn12` (stereo not drawn): the IC50 in the data set with MV4-11 [1] is greater than 20 µM.
Turning to `CC(=O)c1cc(C(=O)Nc2cc(CO)cc(-c3cnn(C)c3)c2F)c2cc(OCCCCCCCC(=O)NCC#Cc3cccc4c3C(=O)N(C3CCC(=O)NC3=O)C4=O)ccn12` (stereo not drawn), the “Ratio IC50” value with MV4-11 [2] is given as roughly 2. Also, the IC50 in the data set on MV4-11 [1] amounted to 3.25 µM.
For the compound `CC(=O)c1cc(C(=O)Nc2cc(CO)cc(-c3cnn(C)c3)c2F)c2cc(O)ccn12`, the IC50 on CREB-binding protein was 6 nM; in the data set on MV4-11 [1] it was 6.37 µM; in data set [3], 7 nM; with KG-1 it was 11.6 µM; at Protein cereblon, greater than 100000 nM; in [5], 13400 nM. In data set [4], the IC50 at 72 h turned out to be 38.3 µM.
Take `CC(=O)c1cc(C(=O)Nc2cc(CO)cc(-c3cnn(C)c3)c2F)c2cc(OC3CCN(C(=O)CCOCCOCCOCCOCCNc4cccc5c4C(=O)N(C4CCC(=O)NC4=O)C5=O)CC3)ccn12` (stereo not drawn): in the data set with MV4-11 [1], the IC50 was 4.89 µM.
As for `CC(=O)c1cc(C(=O)Nc2cc(CO)cc(-c3cnn(C)c3)c2F)c2cc(OCCCCC(=O)NCC#Cc3cccc4c3C(=O)N(C3CCC(=O)NC3=O)C4=O)ccn12` (stereo not drawn), the IC50 with MV4-11 [1] was 21.2 µM.
As for `CO[C@H]1CC[C@H](n2c([C@@H]3CCCC(=O)N3c3ccc(F)c(F)c3)nc3cc(-c4c(C)noc4C)ccc32)CC1` [INOBRODIB], the IC50 is 0.014 µM with MV4-11 [1], 17 µM in the data set on KG-1, greater than 100000 nM on Protein cereblon and 370 nM in data set [5]. In addition, in [4], the IC50 at 72 h is 20 µM.
With `CC(=O)c1cc(C(=O)Nc2cc(CO)cc(-c3cnn(C)c3)c2F)c2cc(OCCCC(=O)NCCCCCCNc3cccc4c3C(=O)N(C3CCC(=O)NC3=O)C4=O)ccn12` (stereo not drawn), the IC50 with MV4-11 [1] was greater than 20 µM.
With `CC(=O)c1cc(C(=O)Nc2cc(CO)cc(-c3cnn(C)c3)c2F)c2cc(OCCCC(=O)NCC#Cc3cccc4c3C(=O)N(C3CCC(=O)NC3=O)C4=O)ccn12` (stereo not drawn), the 50% inhibitory concentration (IC50) in the data set with MV4-11 [1] is 23.2 µM.
